Test results published in ChEMBL document CHEMBL1142082, “Oral versus intravenous flucytosine in patients with human immunodeficiency virus-associated cryptococcal meningitis” (Antimicrob Agents Chemother, 2007).

Key:
[1] = Fungicidal activity in HIV associated Cryptococcal meningitis patient; type: functional, Cryptococcus
[2] = system: Homo sapiens; test: Effect on alanine transferase level in intravenously dosed HIV associated cryptococcal meningitis patient after 2 weeks relative to baseline; type: functional
[3] = system: Homo sapiens; test: Effect on aspartate aminotransferase level in intravenously dosed HIV associated cryptococcal meningitis patient after 2 weeks relative to baseline; type: functional
[4] = AUC in intravenously dosed HIV associated cryptococcal meningitis patient at 24 hrs; type: ADME, organism-based; parameters: time < 24 hr, route intravenous; settings: human, plasma, iv
[5] = system: Homo sapiens; test: Effect on hemoglobin level in intravenously dosed HIV associated cryptococcal meningitis patient relative to control; type: functional
[6] = system: Homo sapiens; test: Effect on hemoglobin level in orally dosed HIV associated cryptococcal meningitis patient relative to control; type: functional
[7] = system: Homo sapiens; test: Effect on platelet count in orally dosed HIV associated cryptococcal meningitis patient relative to control; type: functional
[8] = Clearance in intravenously dosed HIV associated cryptococcal meningitis patient; type: ADME, organism-based; settings: human, in vivo, iv
[9] = system: Homo sapiens; test: Effect on creatinine clearance in intravenously dosed HIV associated cryptococcal meningitis patient relative to control; type: functional
[10] = system: Homo sapiens; test: Effect on neutrophils level in orally dosed HIV associated cryptococcal meningitis patient relative to control; type: functional
[11] = system: Homo sapiens; test: Effect on creatinine clearance in intravenously dosed HIV associated cryptococcal meningitis patient after 2 weeks relative to baseline; type: functional
[12] = Volume of distribution in intravenously dosed HIV associated cryptococcal meningitis patient normalized to weight; type: ADME, organism-based; settings: human, in vivo, iv; read-out: Vdss
[13] = system: Homo sapiens; test: Volume of distribution in orally dosed HIV associated cryptococcal meningitis patient normalized to weight; type: ADME, organism-based; settings: in vivo, po
[14] = Fungicidal activity in orally dosed HIV associated cryptococcal meningitis patient; type: functional, Cryptococcus
[15] = AUC in orally dosed HIV associated cryptococcal meningitis patient at 24 hrs; type: ADME, organism-based; parameters: time < 24 hr, route oral; settings: human, plasma, po
[16] = system: Homo sapiens; test: Effect on alanine transferase level in intravenously dosed HIV associated cryptococcal meningitis patient relative to control; type: functional
[17] = system: Homo sapiens; test: Effect on aspartate aminotransferase level in orally dosed HIV associated cryptococcal meningitis patient relative to control; type: functional
[18] = system: Homo sapiens; test: Effect on alanine transferase level in orally dosed HIV associated cryptococcal meningitis patient after 2 weeks relative to baseline; type: functional
[19] = system: Homo sapiens; test: Effect on hemoglobin level in intravenously dosed HIV associated cryptococcal meningitis patient after 2 weeks relative to baseline; type: functional
[20] = system: Homo sapiens; test: Effect on hemoglobin level in orally dosed HIV associated cryptococcal meningitis patient after 2 weeks relative to baseline; type: functional
[21] = system: Homo sapiens; test: Effect on aspartate aminotransferase level in intravenously dosed HIV associated cryptococcal meningitis patient relative to control; type: functional
[22] = Fungicidal activity in intravenously dosed HIV associated cryptococcal meningitis patient; type: functional, Cryptococcus
[23] = system: Homo sapiens; test: Effect on neutrophils level in intravenously dosed HIV associated cryptococcal meningitis patient relative to control; type: functional
[24] = system: Homo sapiens; test: Effect on platelet count in orally dosed HIV associated cryptococcal meningitis patient after 2 weeks relative to baseline; type: functional
[25] = system: Homo sapiens; test: Effect on creatinine clearance in orally dosed HIV associated cryptococcal meningitis patient after 2 weeks relative to baseline; type: functional
[26] = Oral clearance in HIV associated cryptococcal meningitis patient; type: ADME, organism-based; settings: human, in vivo
[27] = system: Homo sapiens; test: Effect on platelet count in intravenously dosed HIV associated cryptococcal meningitis patient relative to control; type: functional
[28] = system: Homo sapiens; test: Effect on alanine transferase level in orally dosed HIV associated cryptococcal meningitis patient relative to control; type: functional
[29] = system: Homo sapiens; test: Effect on creatinine clearance in orally dosed HIV associated cryptococcal meningitis patient relative to control; type: functional
[30] = system: Homo sapiens; test: Effect on platelet count in intravenously dosed HIV associated cryptococcal meningitis patient after 2 weeks relative to baseline; type: functional
[31] = system: Homo sapiens; test: Effect on neutrophils level in orally dosed HIV associated cryptococcal meningitis patient after 2 weeks relative to baseline; type: functional
[32] = system: Homo sapiens; test: Effect on neutrophils level in intravenously dosed HIV associated cryptococcal meningitis patient after 2 weeks relative to baseline; type: functional
[33] = system: Homo sapiens; test: Effect on aspartate aminotransferase level in orally dosed HIV associated cryptococcal meningitis patient after 2 weeks relative to baseline; type: functional

Compound Nc1nc(=O)[nH]cc1F [FLUCYTOSINE] has a log10cfu/day [1] of -0.46, an Activity [2] of 86% and an Activity [3] of 100%. For the same compound, the AUC at 24 h [4] was 1290 µg·h/mL, the Activity [5] was 11.2 g/dL and the Activity [6] was 10.6 g/dL. For the same compound, the Activity [7] was 263 10^9/L, the clearance [8] was 63.3 mL/min and the Creatinine_CL [9] was 74 mL/min. For the same compound, the Activity [10] was 4.5 10^9/L, the Activity [11] was 76% and the Vd [12] was 0.94 L/kg. It also gave a Vdss [13] of 1.41 L/kg, a log10cfu/day [14] of -0.48 and an AUC at 24 h [15] of 576 µg·h/mL. It also gave an Activity [16] of 38 U/L, an Activity [17] of 40 U/L and an Activity [18] of 94%. It also gave an Activity [19] of 78%, an Activity [20] of 70% and an Activity [21] of 33 U/L. The log10cfu/day [22] was -0.43, the Activity [23] was 5.6 10^9/L and the Activity [24] was 112%. For the same compound, the Activity [25] was 83%, the CL/F [26] was 112 mL/min and the Activity [27] was 249 10^9/L. The Activity [28] was 43 U/L, the Creatinine_CL [29] was 75 mL/min and the Activity [30] was 83%. It also gave an Activity [31] of 73%, an Activity [32] of 59% and an Activity [33] of 69%.
